Assay [1] concerns the target T1, S1P-2 (EDG-5) (Homo sapiens, UniProt O95136).
T1 construct: expressed in transfected cells; host or cells: CHO cells (membrane preparation)
Briefly: EDG-5 GTP [γ-35S] binding SPA assay. The assay is classed as biochemical. The method, then:
(§1) A. In Vitro: A Scintillation Proximity Assay (SPA) for Measuring GTP [γ-^35S] Binding to Membranes Prepared from CHO Cells Expressing Human EDG/S1P Receptors
(§2) EDG-1 (S1P1) GTP [γ-^35S] binding assay: Membrane protein suspensions are prepared from CHO cell clones stably expressing a human EDG-1 N-terminal c-myc tag. Solutions of test compounds ranging from 10 mM to 0.01 nM are prepared in DMSO/50 mM HCl and then diluted into assay buffer (20 mM HEPES, pH7.4, 100 mM NaCl, 10 mM MgCl2, 0.1% fat free BSA). Assay buffer containing 10 mM GDP is mixed with wheat germ agglutinin-coated SPA-beads (1 mg/well) followed by the addition of human EDG-1 membrane protein suspension (10 μg/well) and test compound. The bead/membrane/compound assay components are then mixed for 10-15 minutes on a shaker at room temperature. GTP [γ-^35S] (200 pM) and bead/membrane/compound assay mixture are added to individual wells of a 96 well Optiplate™ (final volume 225 μl/well), sealed and incubated at room temperature for 110 to 120 minutes under constant shaking. After centrifugation (2000 rpm, 10 minutes) luminescence is measured with a TopCount™ instrument.
(§3) EC50 values are obtained by fitting the GTP [γ-^35S] binding curves (raw data) with the dose response curve-fitting tool of ORIGIN V. 6.1. […]

The target in assay [2] is S1P-3 (EDG-3) (Homo sapiens, UniProt Q99500). Briefly: EDG-3 GTP [γ-35S] binding SPA assay. It is filed as biochemical. The method, then:
as §1, §2, §3

Assay [3] deals with T2, S1P-4 (EDG-6) (Homo sapiens, UniProt O95977).
T2 sequence (O95977 1-384): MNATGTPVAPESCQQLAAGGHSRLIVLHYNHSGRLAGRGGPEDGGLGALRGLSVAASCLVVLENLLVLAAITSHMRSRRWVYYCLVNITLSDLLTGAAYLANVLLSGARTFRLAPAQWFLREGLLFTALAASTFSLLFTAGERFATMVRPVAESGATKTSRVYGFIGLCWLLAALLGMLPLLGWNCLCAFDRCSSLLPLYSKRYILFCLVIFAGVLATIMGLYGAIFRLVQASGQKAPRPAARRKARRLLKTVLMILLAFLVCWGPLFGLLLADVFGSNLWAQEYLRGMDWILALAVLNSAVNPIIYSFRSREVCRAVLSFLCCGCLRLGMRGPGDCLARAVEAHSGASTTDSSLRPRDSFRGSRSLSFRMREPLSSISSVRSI
Briefly: EDG-6 GTP [γ-35S] binding SPA assay. It is filed as biochemical. As to the method:
as §1, §2, §3

For assay [4], the target named is T3, human EDG-1 (S1P-1) (Homo sapiens, UniProt P21453).
T3 construct: c-myc (N); expressed in transfected cells; host or cells: CHO cell clones (membrane preparation)
Briefly: EDG-1 (S1P1) GTP [γ-35S] binding SPA assay. It is filed as biochemical. The settings on record: for EC50: GTP [γ-35S] binding, CHO cell membranes. The method, then: as §1, §2
EC50 values are obtained by fitting the GTP [γ-^35S] binding curves (raw data) with the dose response curve-fitting tool of ORIGIN V. 6.1. Basal binding (no compound) and the highest stimulation of GTP [γ-^35S] binding achieved by an agonist are used as the fitting range. Seven different concentrations are used to generate a concentration response curve (using two or three data points per concentration).
Concentrations of EDG receptor expressing membranes range between 13-19 μg per well.

For assay [5], the system named is peripheral blood lymphocytes. Briefly: Measurement of circulating lymphocytes (blood lymphocyte depletion). It is filed as in vivo, Mice (C57bl/6 male). The settings on record: Mus musculus, mice, oral gavage, read-out: ED50 (effective dose for 50% blood lymphocyte depletion). The method, then:
C. In Vivo: Screening Assays for Measurement of Blood Lymphocyte Depletion and Assessment of Heart Effect
Measurement of circulating lymphocytes: Compounds are dissolved in DMSO and diluted to obtain a final concentration of 4% DMSO (v/v, final concentration) and then further diluted in a constant volume of Tween80 25%/H2O, v/v. Tween80 25%/H2O (200 μl), 4% DMSO, and FTY720 (10 μg) are included as negative and positive controls, respectively. Mice (C57bl/6 male, 6-10 week-old) are administered 250-300 μL of compound solution orally by gavages under short isoflurane anesthesia.
[…] Whole blood samples are subjected to hematology analysis. Peripheral lymphocyte counts are determined using an automated analyzer. Subpopulations of peripheral blood lymphocytes are stained by fluorochrome-conjugated specific antibodies and analyzed using a fluorescent activating cell sorter (Facscalibur). Two mice are used to assess the lymphocyte depletion activity of each compound screened. The result is an ED50, which is defined as the effective dose required displaying 50% of blood lymphocyte depletion.

For assay [6], the target named is T4, S1P-5 (EDG-8) (Homo sapiens, UniProt Q9H228).
T4 construct: expressed in transfected cells; host or cells: RE7777 cells as printed (membrane preparation)
Briefly: EDG-8 GTP [γ-35S] binding SPA assay. It is filed as biochemical. The method, then: as §1, §2, §3

SMILES strings stand for the structures. Where two headings read alike, the source gives them in different places.

As usually defined, the EC50 is the concentration at which the effect is half-maximal. Usually ED50 stands for the midpoint of the dose-response relation.

T3 sequence (P21453 whole entry): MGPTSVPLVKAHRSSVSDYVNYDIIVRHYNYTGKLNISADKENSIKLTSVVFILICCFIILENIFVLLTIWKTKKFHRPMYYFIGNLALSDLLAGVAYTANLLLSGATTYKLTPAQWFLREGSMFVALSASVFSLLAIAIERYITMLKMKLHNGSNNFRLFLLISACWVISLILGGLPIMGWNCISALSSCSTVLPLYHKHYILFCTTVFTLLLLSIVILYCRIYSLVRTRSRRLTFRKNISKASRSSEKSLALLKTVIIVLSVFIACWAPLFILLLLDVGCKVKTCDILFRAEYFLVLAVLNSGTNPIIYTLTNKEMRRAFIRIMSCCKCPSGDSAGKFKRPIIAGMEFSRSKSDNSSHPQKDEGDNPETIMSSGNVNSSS
Sequence of S1P-3 (EDG-3) (Q99500 whole entry): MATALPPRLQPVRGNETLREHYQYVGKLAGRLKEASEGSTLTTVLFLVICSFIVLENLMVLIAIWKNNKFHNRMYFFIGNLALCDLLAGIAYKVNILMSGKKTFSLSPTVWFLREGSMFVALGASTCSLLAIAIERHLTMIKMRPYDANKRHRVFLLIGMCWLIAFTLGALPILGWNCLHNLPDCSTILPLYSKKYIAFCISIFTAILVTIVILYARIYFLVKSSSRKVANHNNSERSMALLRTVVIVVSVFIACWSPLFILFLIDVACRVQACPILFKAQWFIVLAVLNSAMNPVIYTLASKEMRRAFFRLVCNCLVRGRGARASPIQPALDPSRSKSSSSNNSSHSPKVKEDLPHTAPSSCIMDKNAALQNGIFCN
T1 sequence (O95136 whole entry): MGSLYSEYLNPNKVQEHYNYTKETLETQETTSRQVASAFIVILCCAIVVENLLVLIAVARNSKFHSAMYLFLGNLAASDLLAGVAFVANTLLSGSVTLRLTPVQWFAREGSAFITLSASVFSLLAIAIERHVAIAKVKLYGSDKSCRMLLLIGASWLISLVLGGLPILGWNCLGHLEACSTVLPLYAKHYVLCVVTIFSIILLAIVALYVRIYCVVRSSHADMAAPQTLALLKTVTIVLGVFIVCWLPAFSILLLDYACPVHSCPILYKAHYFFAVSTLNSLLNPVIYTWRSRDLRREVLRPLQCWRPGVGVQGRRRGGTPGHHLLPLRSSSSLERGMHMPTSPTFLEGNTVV
T4 sequence (Q9H228 whole entry): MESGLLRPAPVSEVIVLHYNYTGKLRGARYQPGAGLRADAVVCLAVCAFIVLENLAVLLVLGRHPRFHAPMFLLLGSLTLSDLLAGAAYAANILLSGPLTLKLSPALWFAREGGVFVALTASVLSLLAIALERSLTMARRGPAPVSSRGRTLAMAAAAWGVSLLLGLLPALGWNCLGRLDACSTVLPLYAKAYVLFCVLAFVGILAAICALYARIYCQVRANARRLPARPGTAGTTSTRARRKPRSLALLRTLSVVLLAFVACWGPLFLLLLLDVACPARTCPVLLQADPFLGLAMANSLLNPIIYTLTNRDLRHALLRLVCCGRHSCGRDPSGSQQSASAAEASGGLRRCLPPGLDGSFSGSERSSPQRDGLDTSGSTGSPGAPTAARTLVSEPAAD

Take `Cc1cc(OCc2ccc(C3CCN(CCC(=O)O)CC3)cc2)ccc1-c1ccccc1` [Example 8, 3-{4-[4-(2-Methyl-biphenyl-4-yloxymethyl)-phenyl]-piperidin-1-yl}-propionic acid]: the EC50 in assay [1] was above 10000 nM; in assay [2], 2000 nM; in assay [3] it was above 10000 nM; in assay [4] it was 2 nM; in assay [6], 370 nM. Besides, the values for the ED50 in assay [5] (at 6 hours) and in assay [5] (at 48 hours) were 0.2 mg/kg and 0.8 mg/kg, respectively.
As for `Cc1cc(OCc2ccc(C3CCN(CCC(=O)O)CC3)cc2)ccc1C1CCCCC1` [Example 1, 3-{4-[4-(4-Cyclohexyl-3-methyl-phenoxymethyl)-phenyl]-piperidin-1-yl}-propionic acid], the midpoint of the response in assay [4], the EC50, lay at 0.22 nM. Besides, the “selectivity for S1P-1 compared to one or more of the other receptors” value in assay [4] (versus S1P-3, S1P-5, S1P-6 and S1P-8 as printed) is “at least 1000 fold”. Besides, the ED50 in assay [5] (time point not stated) worked out at 0.1 mg/kg.
